Data taken from article PMC6413231, “o-Vanillin Derived Schiff Bases and Their Organotin(IV) Compounds: Synthesis, Structural Characterisation, In-Silico Studies and Cytotoxicity” (International Journal of Molecular Sciences, 2019).

Legend:
[1] = test system: EJ-28 (muscle invasive bladder) cancer cells; test: MTT cytotoxicity assay, EJ-28; format: cell-based, human; details: EJ-28 cells, 72 h, ± standard error, read-out: Growth Inhibition Concentration, GI50
Description: (§1) The Schiff bases and their organotin(IV) compounds were screened for in vitro cytotoxicity against a panel of 12 cancer cell lines: EJ-28 (muscle invasive bladder), RT-112 (minimum-invasive bladder), HT29 (colon), U87 and SJ-G2 (glioblastoma), MCF-7 (breast), A2780 (ovarian), H460 (lung), A431 (skin), DU145 (prostate), BE2-C (neuroblastoma), MIA (pancreatic) and one normal breast cell line (MCF-10A) using the MTT metabolic assay (Figure 6). After 72 h of incubation, a dose-dependent […] effect towards the cancer cell lines was measured at very low micromolar (µM) concentrations of the compounds. The growth inhibition concentration of the Schiff bases and their organotin(IV) compounds required to inhibit 50% cell proliferation relative to the cells that were treated with DMSO (control) are given in Table 2. The stability of these compounds was assessed in DMSO as well as in a mixture of DMSO-H2O. The absorbance obtained from UV-vis spectroscopy analysis was monitored for 72 h, and an unchanged pattern in the spectra was indicative that the compounds were stable in both the solvent systems tested.
(§2) The inhibitory effect of the synthesised compounds on the growth of bladder (EJ-28 and RT-112) cancer cells was evaluated by MTT assay. […] RT-112 and EJ-28, human bladder cancer cell lines used in this study (ATCC, Manassas, VA, USA) were cultured in RPMI-1640 (High glucose) medium supplemented with 10% fetal bovine serum containing 1% penicillin. The cells were cultured at 37 °C in a humidified atmosphere of 5% CO2 in air. Cells were seeded in 96-well plates at 6000 cells per well for 24 h, then they were treated with different concentrations of compounds for 72 h. The medium was subsequently removed and the wells were washed with 200 µL of phosphate buffer saline. Aliquots of 20 µL of 3-(4,5-dimethylthiazol-2-yl)-2,5-diphenyltetrazolium bromide (MTT) was added to each well and incubated for 4 h at 37 °C. Aliquots of 200 µL of media was then removed from each well and 200 µL of DMSO was added. Optical density (OD) was measured using an ELISA plate reader at 570 nm. Control wells (100% viability), containing media and DMSO, were included in all the experiments. All data points represented an average of triplicate assays. Cytotoxicity was expressed as CD50, i.e., the concentration that reduced the absorbance of treated cells by 50% with reference to the control (untreated cells).

[2] = test system: RT-112 (minimum-invasive bladder) cancer cells; test: MTT cytotoxicity assay, RT-112; format: cell-based, human; details: RT-112 cells, 72 h, ± standard error, read-out: Growth Inhibition Concentration, GI50
Description: as §1, §2

[3] = test system: MIA (pancreatic) cancer cells; test: MTT growth inhibition assay, MIA; format: cell-based; details: 72 h, ± standard error, read-out: Growth Inhibition Concentration, GI50
Description: as §1
For HT29 (colon), U87 and SJ-G2 (glioblastoma), MCF-7 (breast), A2780 (ovarian), H460 (lung), A431 (skin), Du145 (prostate), BE2-C (neuroblastoma), MIA (pancreas) cell lines and one normal breast cell line, MCF-10A (normal breast), the MTT assays were performed using the following method:
Stock solutions were prepared as follows and stored at −20 °C: Trial compounds were stored as 10 mM solutions in DMSO. All cell lines were cultured in a humidified atmosphere 5% CO2 at 37 °C. The cancer cell lines were maintained in Dulbecco’s modified Eagle’s medium (DMEM) (Trace Biosciences) supplemented with 10% foetal bovine serum, 10 mM sodium bicarbonate, penicillin (100 IU/mL), streptomycin (100 μg/mL) and glutamine (4 mM). The normal cell line, MCF-10A was cultured in DMEM:F12 (1:1) cell culture media, 5% heat inactivated horse serum, supplemented with penicillin (50 IU/mL), streptomycin (50 μg/mL), 20mM Hepes, L-glutamine (2 mM), epidermal growth factor (20 ng/mL), hydrocortisone (500 ng/mL), cholera toxin (100 ng/mL) and insulin (10 μg/mL).
Cells in logarithmic growth were transferred to 96-well plates. Cytotoxicity was determined by plating cells in duplicate in 100 μL medium at a density of 2500–4000 cells/well. On day 0 (24 h after plating), when the cells were in logarithmic growth, 100 μL medium, with or without the test agent, was added to each well. After 72 h drug exposure, growth inhibitory effects were evaluated using the MTT (3-[4,5-dimethylthiazol-2-yl]-2,5-diphenyltetrazolium bromide) assay and absorbance read at 540 nm. Percentage growth inhibition was determined at a fixed drug concentration of 25 μM. A value of 100% was indicative of complete cell growth inhibition. Those analogues showing appreciable percentage growth inhibition underwent further dose-response analysis allowing for the calculation of a GI50 value. This value is the drug concentration at which cell growth is 50% inhibited based on the difference between the optical density values on day 0 and those at the end of drug exposure.

RT-112 cells = test: Intracellular ROS measurement (DCFH-DA); format: cell-based, human; details: 24 h, DMSO as control
Description: Two compounds with the most promising bioactivity, Ph2Sn(S2MoVa) and Ph2Sn(S4MoVa), were selected for further cell apoptosis studies, in order to evaluate the primary damage to biological macromolecules through redox reactions, particularly via formation of ROS [68]. ROS are highly reactive molecules/radicals (O2, O2^•, H2O2, HO^•) that are continuously generated during aerobic metabolism, but when in excessive amounts, can lead to protein and DNA oxidation, protein cross-linking and cell death. Estimation of the levels of ROS in cell culture is an important step towards better understanding the mechanisms that lead to cell death or disease processes. […] ROS production was measured using the ROS-detecting fluorescent dye DCFH-DA and DMSO was used as a control. Both compounds were able to induce ROS production in RT-112 cell lines after 24 h.
Intracellular ROS measurements were used to assess antioxidant or ROS activity. Measurements were performed using a fluorescence plate reader following to the procedure outlines in the ROS detection kit (OxiSelect™). […] The cells were then read on a standard Infinite M200 fluorescence microplate reader (Tecan, Männedorf, Switzerland). The ROS or antioxidant content in unknown samples was determined by comparison with the predetermined DCF standard curve.

Substance | GI50 [1] [nM] | GI50 [2] [nM] | GI50 [3] [nM] | ROS generation (RT-112 cells)
Diphenyltin(IV) [Ph2Sn(S2MoVa), Diphenyltin(IV) [S-2-Methybenzyl-β-N-(2-hydroxy-3-methoxybenzylmethylene) dithiocarbazate]] | 350 ± 50 | 310 ± 50 | 340 ± 20 | stimulated ROS generation
Diphenyltin(IV) [Ph2Sn(S4MoVa), Diphenyltin(IV) [S-4-Methybenzyl-β-N-(2-hydroxy-3-methoxybenzylmethylene) dithiocarbazate]] | 3100 ± 370 | 1700 ± 490 | 390 ± 30 | stimulated ROS generation
